Measured values published in US11186565B2, “Aromatic compound” (TAKEDA PHARMACEUTICAL COMPANY LIMITED, priority 2017, dated 2021).

Biological target: T1, human GPR40 (Homo sapiens, UniProt O14842)
T1 construct: expressed in transfected cells
Assay: Human GPR40 agonist activity with increase in intracellular Ca2+ concentration as an index
Type: cell-based
Details: test compound at final concentration 1 μM; CHO(dhfr−) cells stably expressing human GPR40; FLIPR Ca2+ fluorescence; 100% = 10 μM compound of WO 2015/020184 Example 153, 0% = DMSO
Procedure: Evaluation of Human GPR40 Agonist Activity with Increase in Intracellular Ca^2+ Concentration as an Index
CHO(dhfr−) cells that stably expressed human GPR40 were suspended in MEMα (Wako Pure Chemical Industries, Ltd.) containing 10% dialyzed serum (Thermo Fisher Scientific), 10 mM HEPES (Thermo Fisher Scientific), 100 U/mL penicillin, 100 μg/mL streptomycin (Wako Pure Chemical Industries, Ltd.), and plated on a 384 well black/clear cell culture plate at 10,000 cells/well. After culture overnight in a CO2 incubator at 37° C., the culture supernatant was removed, and loading buffer [Ca^2+ probe attached to Calcium Kit II-iCellux (DOJINDO) was dissolved in assay buffer (20 mM HEPES, 0.1% fatty acid-free BSA (Wako Pure Chemical Industries, Ltd.), 2.5 mM probenecid (DOJINDO)-containing HESS (Thermo Fisher Scientific))] was added at 30 μL/well. After leaving for 1 hr at room temperature under light shielding, assay buffer containing the test compound at a final concentration of 1 μM was added at 10 μL/well in fluorescence plate reader FLIPR Tetra (Molecular Devices), and the fluorescence amount was successively measured. Human GPR40 agonist activity was calculated using an increase in the intracellular Ca^2+ concentration as an index, wherein the activity of 10 μM of the compound of WO 2015/020184 (Example 153: 3-cyclopropyl-3-(2-((1-(2-((2-fluoro-2-methylpropyl)(4-methylpyridin-2-yl)carbamoyl)-5-methoxyphenyl)piperidin-4-yl)methoxy)pyridin-4-yl)propanoic acid) was 100%, and the activity when DMSO was added instead of the test compound was 0%.

T1 sequence (O14842 whole entry): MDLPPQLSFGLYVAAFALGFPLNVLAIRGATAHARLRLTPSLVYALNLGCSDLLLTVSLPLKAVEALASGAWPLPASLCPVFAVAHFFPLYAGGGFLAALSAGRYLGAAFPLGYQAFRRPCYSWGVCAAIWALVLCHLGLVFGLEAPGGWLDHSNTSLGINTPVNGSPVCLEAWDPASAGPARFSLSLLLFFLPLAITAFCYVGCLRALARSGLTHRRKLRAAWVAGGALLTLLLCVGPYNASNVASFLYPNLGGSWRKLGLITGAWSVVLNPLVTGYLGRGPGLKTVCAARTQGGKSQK

SMILES	activity (human GPR40 agonist activity) [%]
COc1ccc(C2CCN(CC(F)(F)F)CC2)c(O[C@H]2CC[C@H](Oc3cc(C(CC(=O)O)C4CC4)ccn3)CC2)c1 (stereo partly drawn) [Example 1, 3-cyclopropyl-3-(2-((trans-4-(5-methoxy-2-(1-(2,2,2-trifluoroethyl)piperidin-4-yl)phenoxy)cyclohexyl)oxy)pyridin-4-yl)propanoic acid]	86
COc1ccc(-c2cnc(OCC(F)(F)F)nc2)c(O[C@H]2CC[C@H](Oc3cc(C(CC(=O)O)C4CC4)ccn3)CC2)c1 (stereo partly drawn) [Example 3, 3-cyclopropyl-3-(2-((trans-4-(5-methoxy-2-(2-(2,2,2-trifluoroethoxy)pyrimidin-5-yl)phenoxy)cyclohexyl)oxy)pyridin-4-yl)propanoic acid]	84
COc1ccc(-c2ccc(OC)nc2)c(O[C@H]2CC[C@H](Oc3cc(C(CC(=O)O)C4CC4)ccn3)CC2)c1 (stereo partly drawn) [Example 7, 3-cyclopropyl-3-(2-((trans-4-(5-methoxy-2-(6-methoxypyridin-3-yl)phenoxy)cyclohexyl)oxy)pyridin-4-yl)propanoic acid]	80

More lines, now with the values ahead:

activity (human GPR40 agonist activity) [%]	SMILES
110	COc1cc(N2CCC(COc3cc([C@@H](CC(=O)O)C4CC4)ccn3)CC2)c(C2CCN(CC(F)(F)F)CC2)cn1 [Example 4, (3S)-3-cyclopropyl-3-(2-((1-(2-methoxy-5-(1-(2,2,2-trifluoroethyl)piperidin-4-yl)pyridin-4-yl)piperidin-4-yl)methoxy)pyridin-4-yl)propanoic acid]
106	COc1cc(N2CCC(COc3cc([C@@H](CC(=O)O)C4CC4)ccn3)CC2)c(NCC(F)(F)C(F)(F)F)cn1 [Example 6, (3S)-3-cyclopropyl-3-(2-((1-(2-methoxy-5-((2,2,3,3,3-pentafluoropropyl)amino)pyridin-4-yl)piperidin-4-yl)methoxy)pyridin-4-yl)propanoic acid]
